The subject of assay [1] is NF-kB reporter in Jurkat cells. Nature of the assay: NF-kB reporter assay in Jurkat cells stimulated with aCD3/aCD28/PMA. The class given is cell-based. Conditions: Jurkat cells, 1 hr compound pre-incubation, aCD3/aCD28/PMA stimulation 4 hr, One-Glo readout, read-out: NF-kB Reporter Assay IC50. The procedure, abridged: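 Luminescence (One-Glo) from the NF-kB reporter yielded IC50 values. Stimulation lasted 4 h at 37° C with aCD3, aCD28 and PMA (final 5, 5 and 0.03 […]), after 1 h compound pre-exposure of 25,000 Jurkat cells per well in serum-free RPMI.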

For a further assay, the target named is Avi-tagged FL MALT-1 (Homo sapiens (Human), UniProt Q9UDY8). Kind of assay: MALT-1 Fluorogenic Peptide Cleavage Assay (MALT1 inhibition assay). It is filed as biochemical. Conditions: Ac-LRSR-AMC peptide substrate, 30 min pre-incubation, 90 min reaction at room temperature. In a few lines: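 Cleavage of Ac-LRSR-AMC, read as fluorescence at 342/441 nm after 90 min at room temperature, with substrate working stocks of 50 μM (Km) or 280 μM (10×Km). Enzyme, Avi-tagged full-length MALT-1 (40 nM stock), was first pre-incubated 30 min with compound in citrate/HEPES pH 6.89 buffer with TCEP, EDTA, CHAPS and 2% DMSO; IC50 fitted from normalised % inhibition.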
Avi-tagged FL MALT-1, sequence (Q9UDY8 whole entry): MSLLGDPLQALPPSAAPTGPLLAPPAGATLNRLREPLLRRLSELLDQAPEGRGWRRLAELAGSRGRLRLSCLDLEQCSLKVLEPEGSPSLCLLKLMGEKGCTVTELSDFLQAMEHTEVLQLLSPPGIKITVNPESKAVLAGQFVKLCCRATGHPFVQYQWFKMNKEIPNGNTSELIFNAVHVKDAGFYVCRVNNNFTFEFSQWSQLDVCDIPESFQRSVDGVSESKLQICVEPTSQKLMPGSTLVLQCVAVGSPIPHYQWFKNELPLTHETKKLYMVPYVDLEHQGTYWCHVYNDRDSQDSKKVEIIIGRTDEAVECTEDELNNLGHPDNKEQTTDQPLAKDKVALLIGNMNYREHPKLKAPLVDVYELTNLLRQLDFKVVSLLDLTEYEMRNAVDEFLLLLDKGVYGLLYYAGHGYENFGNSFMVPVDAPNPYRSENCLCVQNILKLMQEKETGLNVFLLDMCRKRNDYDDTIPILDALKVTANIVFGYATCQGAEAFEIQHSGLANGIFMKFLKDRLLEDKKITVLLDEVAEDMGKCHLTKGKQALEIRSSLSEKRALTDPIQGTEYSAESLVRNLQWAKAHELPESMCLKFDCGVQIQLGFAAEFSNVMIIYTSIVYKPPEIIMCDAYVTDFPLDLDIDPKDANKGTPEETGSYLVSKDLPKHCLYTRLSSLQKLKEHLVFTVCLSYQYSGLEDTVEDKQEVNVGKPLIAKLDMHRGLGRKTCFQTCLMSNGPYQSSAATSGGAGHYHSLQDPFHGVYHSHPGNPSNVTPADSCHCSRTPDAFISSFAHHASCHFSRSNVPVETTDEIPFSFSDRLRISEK

Data on eleven compounds can be found in US20240150321A1, “PYRAZOLYLSULFONAMIDE COMPOUNDS AND THEIR USE IN THERAPY” (HOTSPOT THERAPEUTICS, INC., priority 2022, published 2024).

Like-named read-outs stand apart in the source and are kept apart here.

As for `Cn1ncc2cccc(NS(=O)(=O)c3cnn(-c4cc(C(F)(F)F)c(F)cn4)c3)c21` [Compound I-122, 1-(5-fluoro-4-(trifluoromethyl)pyridin-2-yl)-N-(1-methyl-1H-indazol-7-yl)-1H-pyrazole-4-sulfonamide], the concentration for half-maximal inhibition (IC50) (as a rule, the concentration that inhibits the measured activity by half) in assay [1] (Homo sapiens) is below 0.4 µM; on Avi-tagged FL MALT-1, 0.4 to 1 µM.

For the compound `COC[C@](C)(O)c1ccnc(-n2cc(S(=O)(=O)Nc3cccc4cnn(C)c34)cn2)c1` [Compound I-267], the IC50 in assay [1] (Homo sapiens) was below 0.4 µM; against Avi-tagged FL MALT-1, above 2.5 µM.

On to `Cn1ncc2cccc(NS(=O)(=O)c3cnn(-c4cc(N5CC(C)(C(N)=O)C5)ccn4)c3)c21` [Compound I-458], for which the IC50 (in assay [1] (Homo sapiens); against Avi-tagged FL MALT-1) was above 2.5 µM throughout.

In the case of `C#Cc1ccc2cnn(C)c2c1NS(=O)(=O)c1cnn(-c2ccnc(C(F)(F)F)c2)c1` [Compound I-8, N-(6-Ethynyl-1-Methylindazol-7-yl)-1-(2-(Trifluoromethyl) Pyridin-4-yl)-Pyrazole-4-Sulfonamide], the 50% inhibitory concentration (IC50) was 0.4 to 1 µM in assay [1] (Homo sapiens) and at most 0.4 µM on Avi-tagged FL MALT-1.

Consider `COC[C@](C)(F)c1ccnc(-n2cc(S(=O)(=O)Nc3cccc4cnn(C)c34)cn2)c1` [Compound I-330, (R)-1-(4-(2-fluoro-1-methoxypropan-2-yl)pyridin-2-yl)-N-(1-methyl-1H-indazol-7-yl)-1H-pyrazole-4-sulfonamide], for which the IC50 is below 0.4 µM in assay [1] (Homo sapiens) and above 2.5 µM on Avi-tagged FL MALT-1.

Take `COc1ccc2cnn(C)c2c1NS(=O)(=O)c1cnn(-c2cc(C(C)O)ccn2)c1` (stereo not shown) [Compound I-339, 1-(4-(1-hydroxyethyl)pyridin-2-yl)-N-(6-methoxy-1-methyl-1H-indazol-7-yl)-1H-pyrazole-4-sulfonamide]: the IC50 in assay [1] was below 0.4 µM; on Avi-tagged FL MALT-1, at most 0.4 µM.

For the compound `C[C@@H]1CN(C)C(=O)N1c1ccnc(-n2cc(S(=O)(=O)Nc3cccc4cnn(C)c34)cn2)c1` [Compound I-348], the half-maximal inhibitory concentration (IC50) in assay [1] (Homo sapiens) is below 0.4 µM; at Avi-tagged FL MALT-1, above 2.5 µM.

As to `Cc1n[nH]c2cccc(NS(=O)(=O)c3cnn(-c4ccnc(C5CC5)c4)c3)c12` [Compound I-88, 1-(2-Cyclopropylpyridin-4-yl)-N-(3-Methyl-1H-Indazol-4-yl)-1H-Pyrazole-4-Sulfonamide], the half-inhibitory concentration (IC50) in assay [1] (Homo sapiens) was below 0.4 µM; at Avi-tagged FL MALT-1, above 2.5 µM.

On to `[2H]C([2H])([2H])n1ncc2cnc(OC)c(NS(=O)(=O)c3cnn(-c4cc(C(C)(F)F)ccn4)c3)c21` [Compound I-411, 1-(4-(1,1-Difluoroethyl)Pyridin-2-yl)-N-(6-Methoxy-1-(Methyl-D3)-1H-Pyrazolo[4,3-C]Pyridin-7-yl)-1H-Pyrazole-4-Sulfonamide], for which the IC50 in assay [1] (Homo sapiens) was below 0.4 µM; against Avi-tagged FL MALT-1 it was at most 0.4 µM.

For `COc1ncc2cnn(C)c2c1NS(=O)(=O)c1cnn(-c2cc(N3CC4CC4C3)ccn2)c1` (stereo not shown) [Compound I-405], the figures for the IC50 (in assay [1] (Homo sapiens); at Avi-tagged FL MALT-1) were below 0.4 µM and above 2.5 µM, respectively.

For `Cn1ncc2cccc(NS(=O)(=O)c3cnn(-c4cc(C5(F)CC(F)C5)ccn4)c3)c21` (stereo not shown) [Compound I-366, 1-(4-(1,3-difluorocyclobutyl)pyridin-2-yl)-N-(1-methyl-1H-indazol-7-yl)-1H-pyrazole-4-sulfonamide], the IC50 in assay [1] was below 0.4 µM; against Avi-tagged FL MALT-1, above 2.5 µM.
